Reference: PubChem BioAssay AID1918932 (Molecular Pharmacology Branch, DTP, NCI, 2023)

Tested on: 171881-019-R-J1-PDC complex spheroid viability
Assay: Anticancer human tumor 171881-019-R-J1-PDC patient-derived invasive breast carcinoma cell line growth inhibition
Settings: for IC50: curve of first compound; for viability, T/C: stronger effect = lower value
Outline: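 Multicellular complex spheroids of tumor cells with human endothelial cells (HUVEC) and mesenchymal stem cells; the LSD1 inhibitor iadademstat was combined with standard-of-care or investigational agents. Top concentration at or near clinical Cmax, half-log dilutions; final DMSO ≤0.25%.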

[1] = second compound 0.1 µM, first compound 0.000316 µM
[2] = second compound 0.1 µM, first compound 0.001 µM
[3] = second compound 0.1 µM, first compound 0.00316 µM
[4] = second compound 0.1 µM, first compound 0.01 µM
[5] = second compound 0.1 µM, first compound 0.0316 µM
[6] = second compound 0.1 µM, first compound 0.1 µM
[7] = second compound 0.316 µM, first compound 0.000316 µM
[8] = second compound 0.316 µM, first compound 0.001 µM
[9] = second compound 0.316 µM, first compound 0.00316 µM
[10] = second compound 0.316 µM, first compound 0.01 µM
[11] = second compound 0.316 µM, first compound 0.0316 µM
[12] = second compound 0.316 µM, first compound 0.1 µM
[13] = second compound 1 µM, first compound 0.000316 µM
[14] = second compound 1 µM, first compound 0.001 µM
[15] = second compound 1 µM, first compound 0.00316 µM
[16] = second compound 1 µM, first compound 0.01 µM
[17] = second compound 1 µM, first compound 0.0316 µM
[18] = second compound 1 µM, first compound 0.1 µM
[19] = second compound 3.16 µM, first compound 0.000316 µM
[20] = second compound 3.16 µM, first compound 0.001 µM
[21] = second compound 3.16 µM, first compound 0.00316 µM
[22] = second compound 3.16 µM, first compound 0.01 µM
[23] = second compound 3.16 µM, first compound 0.0316 µM
[24] = second compound 3.16 µM, first compound 0.1 µM
[25] = second compound 10 µM, first compound 0.000316 µM
[26] = second compound 10 µM, first compound 0.001 µM
[27] = second compound 10 µM, first compound 0.00316 µM
[28] = second compound 10 µM, first compound 0.01 µM
[29] = second compound 10 µM, first compound 0.0316 µM
[30] = second compound 10 µM, first compound 0.1 µM
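Further: spheroids exposed to agents for 7 days after 3 days growth.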

| Compound | IC50 (second compound 0.1 µM) [nM] | IC50 (second compound 0.316 µM) [nM] | IC50 (second compound 1 µM) [nM] | IC50 (second compound 3.16 µM) [nM] | IC50 (second compound 10 µM) [nM] | viability, T/C [3] [%] | viability, T/C [4] [%] | viability, T/C [5] [%] | viability, T/C [6] [%] | viability, T/C [9] [%] | viability, T/C [10] [%] | viability, T/C [11] [%] | viability, T/C [12] [%] | viability, T/C [15] [%] | viability, T/C [16] [%] | viability, T/C [17] [%] | viability, T/C [18] [%] | viability, T/C [21] [%] | viability, T/C [22] [%] | viability, T/C [23] [%] | further results |
| --- | --- | --- | --- | --- | --- | --- | --- | --- | --- | --- | --- | --- | --- | --- | --- | --- | --- | --- | --- | --- | --- |
| CC(C)CC(NC(=O)C(Cc1ccccc1)NC(=O)c1cnccn1)B(O)O (stereo not given) + NC1CCC(NC2CC2c2ccccc2)CC1 | < 0.316 | < 0.316 | < 0.316 | < 0.316 | < 0.316 | 3.65 | 0.1 | 0.06 | 0.11 | 0.38 | 0.1 | 0.09 | 0.14 | 0.35 | 0.2 | 0.03 | 2.22 | 0.44 | 0.14 | 0.04 | viability, T/C [1]: 9.27%; viability, T/C [2]: 1.3%; viability, T/C [7]: 8.56%; viability, T/C [8]: 1.25%; viability, T/C [13]: 10.1%; viability, T/C [14]: 1.4%; viability, T/C [19]: 9.75%; viability, T/C [20]: 3.48%; viability, T/C [24]: 1.61%; viability, T/C [25]: 5.79%; viability, T/C [26]: 0.65%; viability, T/C [27]: 0.32%; viability, T/C [28]: 0.23%; viability, T/C [29]: 0.09%; viability, T/C [30]: 0.37% |
| CC(C)CC(NC(=O)CNC(=O)c1cc(Cl)ccc1Cl)B1OC(=O)CC(CC(=O)O)(C(=O)O)O1 (stereo not given) + NC1CCC(NC2CC2c2ccccc2)CC1 | 3.66 | 3.22 | 3.66 | 3.84 | 3.71 | 54.9 | 13.2 | 3.51 | 4.11 | 49.8 | 11.8 | 3.3 | 1.04 | 54.5 | 13.6 | 3.7 | 1 | 57.1 | 12.4 | 3.26 | viability, T/C [1]: 87.4%; viability, T/C [2]: 86.8%; viability, T/C [7]: 84.8%; viability, T/C [8]: 83.8%; viability, T/C [13]: 79%; viability, T/C [14]: 82.2%; viability, T/C [19]: 91.7%; viability, T/C [20]: 90.8%; viability, T/C [24]: 0.97%; viability, T/C [25]: 86.1%; viability, T/C [26]: 94.2%; viability, T/C [27]: 56.2%; viability, T/C [28]: 8.46%; viability, T/C [29]: 1.96%; viability, T/C [30]: 0.65% |
| COc1cc(Nc2ncc3c(n2)-c2ccc(Cl)cc2C(c2c(F)cccc2OC)=NC3)ccc1C(=O)O + NC1CCC(NC2CC2c2ccccc2)CC1 | > 1000 | > 1000 | > 1000 | > 1000 | > 1000 | 105 | 99.2 | 100 | 99.6 | 111 | 92.9 | 98.6 | 95.9 | 112 | 107 | 93.5 | 105 | 110 | 104 | 95.7 | viability, T/C (second compound 0.1 µM, first compound 0.316 µM): 93.7%; viability, T/C (second compound 0.1 µM, first compound 1 µM): 60.1%; viability, T/C (second compound 0.316 µM, first compound 0.316 µM): 92.4%; viability, T/C (second compound 0.316 µM, first compound 1 µM): 59.2%; viability, T/C (second compound 1 µM, first compound 0.316 µM): 88.5%; viability, T/C (second compound 1 µM, first compound 1 µM): 62.2%; viability, T/C [24]: 88.3%; viability, T/C (second compound 3.16 µM, first compound 0.316 µM): 92%; viability, T/C (second compound 3.16 µM, first compound 1 µM): 60.9%; viability, T/C [27]: 113%; viability, T/C [28]: 111%; viability, T/C [29]: 97.6%; viability, T/C [30]: 104%; viability, T/C (second compound 10 µM, first compound 0.316 µM): 86.7%; viability, T/C (second compound 10 µM, first compound 1 µM): 60.7% |
